{"source": "paper PMC7064328", "about": "(Environmental Health Perspectives, 2020)", "system": "maternal liver", "test": "Maternal liver histopathology (H&E)", "format": "in vivo, mouse (CD-1)", "details": "for CA, any severity: % / CA, any severity: N / CA, marked: % / CA, marked: N / CA, minimal to mild: % / CA, minimal to mild: N / CA, moderate: % / CA, moderate: N / Focal regions of classic necrosis: % / Focal regions of classic necrosis: N / Increase in cell death: % / Increase in cell death: N / Increase in mitotic figures: % / Increase in mitotic figures: N / Vacuolation, any severity: % / Vacuolation, any severity: N / Vacuolation, mild: % / Vacuolation, mild: N / Vacuolation, minimal: % / Vacuolation, minimal: N / Vacuolation, moderate: % / Vacuolation, moderate: N: maternal liver", "source_text": "From each uterus, first, viable embryos and their matched placentas were collected in succession within a horn and immediately snap frozen ( n=2–5 per litter ), and subsequent embryos were collected for growth measurements ( n=2–11 per litter ). Additional placentas were collected and placed in 4% paraformaldehyde (PFA) for histological analysis (Block 2 only). Amniotic fluid was collected by needle aspiration from litters euthanized at E11.5 and snap frozen in liquid nitrogen. Embryo livers were collected from litters euthanized at E17.5 and snap frozen in liquid nitrogen. Dam livers were weighed, a portion of the left lateral lobe was placed in 4% PFA for histology, and another portion of the same lobe was snap frozen in liquid nitrogen. A third liver section was obtained from Block 2 dams and fixed in McDowell and Trump’s fixative for electron microscopy (EM). Gross lesions were collected when observed and placed in 4% PFA for histology. Dam kidneys were removed, a cross section was prepared from the right kidney, a longitudinal section was prepared from the left kidney, and both sections were fixed in 4% PFA for histological analysis.\nDam livers, kidneys, and placentas were trimmed and embedded by the NIEHS Mouse Embryo Phenotyping Core. Tissues collected at necropsy were fixed in 4% PFA for 72 h and paraffin embedded, and 5-μm sections were prepared and stained with hematoxylin and eosin (H&E). Pathology was evaluated and a pathology review conducted by S.A.E. Diplomate American College of Veterinary Pathologists (DACVP). Pathology reviews were conducted as an informed approach analysis [e.g., nonblinded analysis; see Sills et al. ([2019])]. Select tissue slides were scanned using the AT2 Scanner (Aperio). Images were then captured for publication using the ImageScope software; version 12.3.0.5056 (Aperio). Serum and urine obtained from dams in Block 2 were analyzed using the AU480 clinical chemistry analyzer (Beckman Coulter Inc.). Reagents and calibration standards used to measure alkaline phosphatase (ALP), alanine aminotransferase (ALT), aspartate aminotransferase (AST), blood urea nitrogen (BUN), serum creatinine, urine creatinine, glucose (Glu), total protein (TP), triglyceride (Trig), high-density lipoprotein (HDL), cholesterol (Chol), and albumin (ALB) were purchased from Beckman Coulter Inc. Reagents for sorbitol dehydrogenase (SDH), total bile acid (TBA), and micro-TP were purchased from Sekisui Diagnostics. The reagent used to measure low-density lipoprotein (LDL) was purchased form Diazyme Laboratories."}
{"compound": "O=C(O)C(F)(F)C(F)(F)C(F)(F)C(F)(F)C(F)(F)C(F)(F)C(F)(F)F", "note": "[PFOA, Perfluorooctanoic acid]", "values": [{"measurement": "Incidence of livers with adverse outcomes including cytoplasmic alteration", "setting": "all dose groups, E11.5 and E17.5", "value": 100, "unit": "%"}, {"measurement": "CA, any severity: %", "setting": "E11.5, 1 mg/kg/d", "value": 100, "unit": "%"}, {"measurement": "CA, any severity: N", "setting": "E11.5, 1 mg/kg/d", "value": 5}, {"measurement": "CA, marked: %", "setting": "E11.5, 1 mg/kg/d", "value": 0, "unit": "%"}, {"measurement": "CA, marked: N", "setting": "E11.5, 1 mg/kg/d", "value": 0}, {"measurement": "CA, minimal to mild: %", "setting": "E11.5, 1 mg/kg/d", "value": 100, "unit": "%"}, {"measurement": "CA, minimal to mild: N", "setting": "E11.5, 1 mg/kg/d", "value": 5}, {"measurement": "CA, moderate: %", "setting": "E11.5, 1 mg/kg/d", "value": 0, "unit": "%"}, {"measurement": "CA, moderate: N", "setting": "E11.5, 1 mg/kg/d", "value": 0}, {"measurement": "Focal regions of classic necrosis: %", "setting": "E11.5, 1 mg/kg/d", "value": 0, "unit": "%"}, {"measurement": "Focal regions of classic necrosis: N", "setting": "E11.5, 1 mg/kg/d", "value": 0}, {"measurement": "Increase in cell death: %", "setting": "E11.5, 1 mg/kg/d", "value": 20, "unit": "%"}, {"measurement": "Increase in cell death: N", "setting": "E11.5, 1 mg/kg/d", "value": 1}, {"measurement": "Increase in mitotic figures: %", "setting": "E11.5, 1 mg/kg/d", "value": 40, "unit": "%"}, {"measurement": "Increase in mitotic figures: N", "setting": "E11.5, 1 mg/kg/d", "value": 2}, {"measurement": "Vacuolation, any severity: %", "setting": "E11.5, 1 mg/kg/d", "value": 0, "unit": "%"}, {"measurement": "Vacuolation, any severity: N", "setting": "E11.5, 1 mg/kg/d", "value": 0}, {"measurement": "Vacuolation, mild: %", "setting": "E11.5, 1 mg/kg/d", "value": 0, "unit": "%"}, {"measurement": "Vacuolation, mild: N", "setting": "E11.5, 1 mg/kg/d", "value": 0}, {"measurement": "Vacuolation, minimal: %", "setting": "E11.5, 1 mg/kg/d", "value": 0, "unit": "%"}, {"measurement": "Vacuolation, minimal: N", "setting": "E11.5, 1 mg/kg/d", "value": 0}, {"measurement": "Vacuolation, moderate: %", "setting": "E11.5, 1 mg/kg/d", "value": 0, "unit": "%"}, {"measurement": "Vacuolation, moderate: N", "setting": "E11.5, 1 mg/kg/d", "value": 0}, {"measurement": "CA, any severity: %", "setting": "E11.5, 5 mg/kg/d", "value": 100, "unit": "%"}, {"measurement": "CA, any severity: N", "setting": "E11.5, 5 mg/kg/d", "value": 5}, {"measurement": "CA, marked: %", "setting": "E11.5, 5 mg/kg/d", "value": 100, "unit": "%"}, {"measurement": "CA, marked: N", "setting": "E11.5, 5 mg/kg/d", "value": 5}, {"measurement": "CA, minimal to mild: %", "setting": "E11.5, 5 mg/kg/d", "value": 0, "unit": "%"}, {"measurement": "CA, minimal to mild: N", "setting": "E11.5, 5 mg/kg/d", "value": 0}, {"measurement": "CA, moderate: %", "setting": "E11.5, 5 mg/kg/d", "value": 0, "unit": "%"}, {"measurement": "CA, moderate: N", "setting": "E11.5, 5 mg/kg/d", "value": 0}, {"measurement": "Focal regions of classic necrosis: %", "setting": "E11.5, 5 mg/kg/d", "value": 40, "unit": "%"}, {"measurement": "Focal regions of classic necrosis: N", "setting": "E11.5, 5 mg/kg/d", "value": 2}, {"measurement": "Increase in cell death: %", "setting": "E11.5, 5 mg/kg/d", "value": 60, "unit": "%"}, {"measurement": "Increase in cell death: N", "setting": "E11.5, 5 mg/kg/d", "value": 3}, {"measurement": "Increase in mitotic figures: %", "setting": "E11.5, 5 mg/kg/d", "value": 100, "unit": "%"}, {"measurement": "Increase in mitotic figures: N", "setting": "E11.5, 5 mg/kg/d", "value": 5}, {"measurement": "Vacuolation, any severity: %", "setting": "E11.5, 5 mg/kg/d", "value": 100, "unit": "%"}, {"measurement": "Vacuolation, any severity: N", "setting": "E11.5, 5 mg/kg/d", "value": 5}, {"measurement": "Vacuolation, mild: %", "setting": "E11.5, 5 mg/kg/d", "value": 100, "unit": "%"}, {"measurement": "Vacuolation, mild: N", "setting": "E11.5, 5 mg/kg/d", "value": 5}, {"measurement": "Vacuolation, minimal: %", "setting": "E11.5, 5 mg/kg/d", "value": 0, "unit": "%"}, {"measurement": "Vacuolation, minimal: N", "setting": "E11.5, 5 mg/kg/d", "value": 0}, {"measurement": "Vacuolation, moderate: %", "setting": "E11.5, 5 mg/kg/d", "value": 0, "unit": "%"}, {"measurement": "Vacuolation, moderate: N", "setting": "E11.5, 5 mg/kg/d", "value": 0}, {"measurement": "CA, any severity: %", "setting": "E17.5, 1 mg/kg/d", "value": 100, "unit": "%"}, {"measurement": "CA, any severity: N", "setting": "E17.5, 1 mg/kg/d", "value": 5}, {"measurement": "CA, marked: %", "setting": "E17.5, 1 mg/kg/d", "value": 0, "unit": "%"}, {"measurement": "CA, marked: N", "setting": "E17.5, 1 mg/kg/d", "value": 0}, {"measurement": "CA, minimal to mild: %", "setting": "E17.5, 1 mg/kg/d", "value": 0, "unit": "%"}, {"measurement": "CA, minimal to mild: N", "setting": "E17.5, 1 mg/kg/d", "value": 0}, {"measurement": "CA, moderate: %", "setting": "E17.5, 1 mg/kg/d", "value": 100, "unit": "%"}, {"measurement": "CA, moderate: N", "setting": "E17.5, 1 mg/kg/d", "value": 5}, {"measurement": "Focal regions of classic necrosis: %", "setting": "E17.5, 1 mg/kg/d", "value": 0, "unit": "%"}, {"measurement": "Focal regions of classic necrosis: N", "setting": "E17.5, 1 mg/kg/d", "value": 0}, {"measurement": "Increase in cell death: %", "setting": "E17.5, 1 mg/kg/d", "value": 100, "unit": "%"}, {"measurement": "Increase in cell death: N", "setting": "E17.5, 1 mg/kg/d", "value": 5}, {"measurement": "Increase in mitotic figures: %", "setting": "E17.5, 1 mg/kg/d", "value": 0, "unit": "%"}, {"measurement": "Increase in mitotic figures: N", "setting": "E17.5, 1 mg/kg/d", "value": 0}, {"measurement": "Vacuolation, any severity: %", "setting": "E17.5, 1 mg/kg/d", "value": 0, "unit": "%"}, {"measurement": "Vacuolation, any severity: N", "setting": "E17.5, 1 mg/kg/d", "value": 0}, {"measurement": "Vacuolation, mild: %", "setting": "E17.5, 1 mg/kg/d", "value": 0, "unit": "%"}, {"measurement": "Vacuolation, mild: N", "setting": "E17.5, 1 mg/kg/d", "value": 0}, {"measurement": "Vacuolation, minimal: %", "setting": "E17.5, 1 mg/kg/d", "value": 0, "unit": "%"}, {"measurement": "Vacuolation, minimal: N", "setting": "E17.5, 1 mg/kg/d", "value": 0}, {"measurement": "Vacuolation, moderate: %", "setting": "E17.5, 1 mg/kg/d", "value": 0, "unit": "%"}, {"measurement": "Vacuolation, moderate: N", "setting": "E17.5, 1 mg/kg/d", "value": 0}, {"measurement": "CA, any severity: %", "setting": "E17.5, 5 mg/kg/d", "value": 100, "unit": "%"}, {"measurement": "CA, any severity: N", "setting": "E17.5, 5 mg/kg/d", "value": 6}, {"measurement": "CA, marked: %", "setting": "E17.5, 5 mg/kg/d", "value": 100, "unit": "%"}, {"measurement": "CA, marked: N", "setting": "E17.5, 5 mg/kg/d", "value": 6}, {"measurement": "CA, minimal to mild: %", "setting": "E17.5, 5 mg/kg/d", "value": 0, "unit": "%"}, {"measurement": "CA, minimal to mild: N", "setting": "E17.5, 5 mg/kg/d", "value": 0}, {"measurement": "CA, moderate: %", "setting": "E17.5, 5 mg/kg/d", "value": 0, "unit": "%"}, {"measurement": "CA, moderate: N", "setting": "E17.5, 5 mg/kg/d", "value": 0}, {"measurement": "Focal regions of classic necrosis: %", "setting": "E17.5, 5 mg/kg/d", "value": 0, "unit": "%"}, {"measurement": "Focal regions of classic necrosis: N", "setting": "E17.5, 5 mg/kg/d", "value": 0}, {"measurement": "Increase in cell death: %", "setting": "E17.5, 5 mg/kg/d", "value": 100, "unit": "%"}, {"measurement": "Increase in cell death: N", "setting": "E17.5, 5 mg/kg/d", "value": 6}, {"measurement": "Increase in mitotic figures: %", "setting": "E17.5, 5 mg/kg/d", "value": 0, "unit": "%"}, {"measurement": "Increase in mitotic figures: N", "setting": "E17.5, 5 mg/kg/d", "value": 0}, {"measurement": "Vacuolation, any severity: %", "setting": "E17.5, 5 mg/kg/d", "value": 100, "unit": "%"}, {"measurement": "Vacuolation, any severity: N", "setting": "E17.5, 5 mg/kg/d", "value": 6}, {"measurement": "Vacuolation, mild: %", "setting": "E17.5, 5 mg/kg/d", "value": 0, "unit": "%"}, {"measurement": "Vacuolation, mild: N", "setting": "E17.5, 5 mg/kg/d", "value": 0}, {"measurement": "Vacuolation, minimal: %", "setting": "E17.5, 5 mg/kg/d", "value": 0, "unit": "%"}, {"measurement": "Vacuolation, minimal: N", "setting": "E17.5, 5 mg/kg/d", "value": 0}, {"measurement": "Vacuolation, moderate: %", "setting": "E17.5, 5 mg/kg/d", "value": 100, "unit": "%"}, {"measurement": "Vacuolation, moderate: N", "setting": "E17.5, 5 mg/kg/d", "value": 6}]}
